Where two headings read alike, the source gives them in different places. Where a SMILES comes first, the peptide text is derived from it.
Key:
[1] = stability testing in MES buffer (pH 6.5); format: physicochemical; settings: 37° C., read-out: t1/2 (min) MES Buffer (pH 6.5)
Procedure: (§1) Stability testing of the various compounds was performed in buffer, intestinal perfusate, and an intestinal homogenate preparation to assess the potential oral availability of these compounds. Initial studies prepared the tissue for stability studies. The buffer used in stability testing is 10 mM MES (pH 6.5) containing 135 mM NaCl, and 5 mM KCl. To collect intestinal perfusate from rats, male Sprague Dawley rats, 8 to 10 weeks old, weighing 250 to 350 g were fasted 15 to 18 hours with water given ad libitum. Anesthesia was administered by intramuscular injection of pentobarbital/ketamine (40 mg/kg and 80 mg/kg, respectively). The rats were placed on a warming pad under a surgical lamp to maintain body temperature and jejunal intestinal segments were exposed through a midline, abdominal incision. Approximately 20 cm segment of the jejunum (2 to 4 cm distal to the ligament of Treitz) was cannulated and the intestinal segments were perfused with 10 mM MES (pH 6.5) containing 135 mM NaCl, and 5 mM KCl at a flow-rate of 0.5 ml/min at 37° C. using a constant infusion pump (Harvard Apparatus, South Natick, Mass.). The collected perfusate was stored at −80° C. until use for ex vivo stability studies. After collection, the perfused intestinal segments were flushed with ice-cold 0.15 M KCl solution and the animal was euthanized and the jejunal intestinal segment detached. The inner intestinal tissue layers are scraped out and homogenized in MES buffer (pH 6.5) in a ratio of 1 part of intestinal tissue to 5 parts buffer. Total protein content of the perfusate and the homogenate were determined using a Biorad protein assay kit. The intestinal homogenate samples were used immediately or rapidly frozen at −80° C. until stability analysis.
The actual stability testing protocol is as follows: A 0.1 ml aliquot of the synthetic peptide solution (1 mg/ml) was added to 0.9 ml of MES buffer, pH 6.5, intestinal perfusate, or intestinal homogenate at 37° C. Samples were mixed by vortexing and 100 microliter aliquots were removed over a 60 to 90 minute period for analysis of breakdown products. […]

[2] = rat intestinal in situ perfusion permeability; format: in vivo; settings: rat
Procedure: To determine the intestinal permeability of the various peptide analogs, male albino Sprague-Dawley rats, 9-10 weeks old and weighing 250-350 g were fasted for 18 hours with free access to water. The rats were anesthetized with an intramuscular injection of ketamine/xylazine/butorphanol (87 mg/kg, 6 mg/kg, and 0.2 mg/kg body weight, respectively). The abdomen was opened by a 4-5 cm midline incision and a 10 cm jejunal segment was cannulated on two ends and connected to a syringe pump that pumps the perfusing solution through the cannulated intestine at a constant rate and at a temperature of 37° C. The isolated segment was rinsed with 10 mM MES (pH 6.5) at a flow-rate of 0.5 ml/min in order to clean out any residual debris. Jejunal perfusion was subsequently performed with the same buffer containing 135 mM NaCl, 5 mM KCl and 0.01% PEG 4000 at a flow rate of 0.2 ml/min containing test compound, internal permeability reference standards (e.g., metoprolol) and ^14C-PEG 4000 as a non-absorbable marker for measuring water flux. After steady-state is reached within the perfused intestinal segment, typically 30 minutes after start of perfusion, samples were taken at 10 minute intervals for 1 hour. ^14C (PEG-4000) levels are assayed by scintillation counting and test compounds and internal permeability standard analysis by LC/MS/MS. Samples are frozen and stored at −80° C. until analysis.
The effective permeability (Peff) determined from the in situ perfusion is calculated from equation 1
[formula] where Q is the perfusion buffer flow rate, C′out is the outlet concentration of the compound that has been adjusted for water transport (equation 2) after passing through the intestinal segment, C′in is the inlet or starting concentration of the compound, R is the radius of the intestinal segment (set to 0.2 cm) and L is the length of the intestinal segment. To correct for water transport, a non-absorbed radioactive tracer, ^14C PEG-4000, is included in the perfusion buffer. The Cout/Cin ratio is corrected for water transport according to equation 2:
[formula] where Aout-A0 is equal to the radioactivity counts in the outlet sample minus background (dpm) and Ain-A0 is equal to the radioactivity counts in the inlet sample minus background (dpm).
In certain instances, in addition to perfusing the intestinal segment as described, plasma is drawn through a portal vein cannula to determine the amount of material entering the portal system during the perfusion. This additional experimental step can aid in determining the true intestinal permeability of unstable compounds. After steady state conditions are reached as described above, 0.5 ml aliquots of plasma are withdrawn from the portal vein at regular intervals throughout the experimental time frame. The plasma samples are deproteinated with acetonitrile and the sample is subjected to SPE and LC/MS analysis as described above. From the plasma concentration of compound, the mesenteric permeability can be determined by substitution into equation 3: Flux=A*Pe-mes*Ci 3) where Flux is equal to the portal blood flow (estimated at 1 ml/min in the rat)×the steady state mesenteric blood concentration of the peptide analogs, A is the absorptive area of the intestine (estimated at 12.56 cm^2 in the rat intestine), Pe-mes is the mesenteric Permeability (cm/sec), and Ci is the starting concentration of drug in the perfusate (ug/ml).

[3] = biological target: human α-thrombin (Homo sapiens, UniProt P00734); assay: inhibition of α-thrombin hydrolysis of chromogenic substrate; format: biochemical; settings: Ki (μM) + SD, αIIa (2 nM), alpha-thrombin 2 nM, Sar-Pro-Arg-paranitroanilide
[4] = stability testing in intestinal perfusate; format: in vitro ADME; settings: rat, 37° C.
Procedure: as §1
(§2) The actual stability testing protocol is as follows: A 0.1 ml aliquot of the synthetic peptide solution (1 mg/ml) was added to 0.9 ml of MES buffer, pH 6.5, intestinal perfusate, or intestinal homogenate at 37° C. Samples were mixed by vortexing and 100 microliter aliquots were removed over a 60 to 90 minute period for analysis of breakdown products. The 100 microliter sample aliquots were diluted 10 fold with water and subjected to solid phase extraction using a Waters Oasis HLB column. Briefly, the columns were preconditioned by passing 1 ml of MeOH and 1 ml of water over the column, and 1 ml of sample was added to the column. The column was washed with 5% methanol:95% water solution to remove proteins and salts, then eluted with 1 ml of 100% methanol. The methanol was removed by vacuum, and the sample was reconstituted in mobile phase for LC/MS/MS analysis.
(§3) LC/MS/MS analysis was performed on a HP1100 HPLC (Hewlett Packard) interfaced with a Quattro II MS/MS detector (Waters/Micromass). For the HPLC separation, a 10 μL aliquot of sample in a mobile phase consisting of an equal volume mixture of acetonitrile/water containing 0.5% formic acid was injected onto a 150 mm×2.2 mm, 5 μm C8 column (Higgins Analytical Inc) and developed at a flow rate of 0.2 ml/min for 5 minutes. The MS detector was used in single ion recording mode at a cone voltage of 50 Volts.

[5] = stability testing in intestinal homogenate; format: in vitro ADME; settings: rat
Procedure: as §1, §2, §3

half-life [1] [min] | Papp ([2]; from portal vein plasma during perfusion, read-out: Permeability (mesenteric)) [nm/s] | Papp ([2]; rat jejunal in situ perfusion, read-out: Permeability (in situ)) [nm/s] | t1/2 (min) Intestinal Perfusate [4] | t1/2 (min) Intestinal Homogenate ([5]; 37° C.) | Structure (SMILES) | half-life at 0.1 mg/ml [1] [min] | Papp ([2]; male, Sprague-Dawley, other: in situ jejunal perfusion, pH 6.5, from portal vein plasma during perfusion, read-out: Permeability (mesenteric)) [nm/s] | Papp ([2]; male, Sprague-Dawley, other: in situ jejunal perfusion, pH 6.5, rat jejunal in situ perfusion, read-out: Permeability (in situ)) [nm/s] | Ki [3] [µM] | half-life at 0.1 mg/ml ([4]; male, Sprague Dawley, intestinal (jejunal) perfusate, pH 6.5, rat, read-out: t1/2 (min) Intestinal Perfusate) [min] | half-life at 0.1 mg/ml ([5]; male, Sprague Dawley, intestinal (jejunal) homogenate, pH 6.5, 37° C., read-out: t1/2 (min) Intestinal Homogenate) [min] | stability in intestinal homogenate (FIG. 12) [5]
– | – | – | – | – | Cc1ccc(C[C@H](NC(=O)[C@@H](C)NC(=O)[C@@H]2CCCN2C(=O)[C@@H]2C[C@@H]3CCCC[C@@H]3N2C(=O)[C@H](N)CCCN=C(N)N)C(N)=O)cc1 [rOicPaF(p-Me), D-Arg-Oic-Pro-D-Ala-Phe(p-Me)] (HELM PEPTIDE1{[dR].[O=C([C@@H]1C[C@@H]2CCCC[C@@H]2N1[*:1])[*:2]].P.[dA].[Cc1ccc(C[C@H](N[*:1])C(=O)[*:2])cc1].[am]}$$$$V2.0) | 363 | 3.09 | 10 | 6.4 to 10.6 | 314 | 757 | most stable
604 | 1.39 | 62 | stable | stable | C[C@@H](NC(=O)[C@@H]1CCCN1C(=O)[C@@H]1C[C@@H]2CCCC[C@@H]2N1C(=O)[C@H](N)CCCNC(=N)N)C(=O)N[C@@H](Cc1ccccc1)C(N)=O [rOicPaF] (HELM PEPTIDE1{[dR].[O=C([C@@H]1C[C@@H]2CCCC[C@@H]2N1[*:1])[*:2]].P.[dA].F.[am]}$$$$V2.0) | – | – | – | – | – | – | most stable
